Test results as given in article PMC3749181, “Rapid Identification of Antifungal Compounds against Exserohilum rostratum Using High Throughput Drug Repurposing Screens” (PLoS ONE, 2013).
Like-named read-outs stand apart in the source and are kept apart here.

What was measured:
[1] = system: E. rostratum hyphal fragments; experiment: hyphal fragment fungicidal ATP content assay (PBS, 1536-well); assay type: cell-based, Exserohilum rostratum; conditions: for Emax / Hyphae % M. Res. / Hyphae % Max. Resp.: 46 µM Amphotericin B = 100%
Description: (§1) Conidia and hyphae of E. rostratum were obtained as described by Richard et al., with the following modifications. Briefly, conidia were harvested from Potato Dextrose Agar (PDA) cultured media with 0.05% Tween 80, and the conidial suspension was filtered using a Cell Strainer (100 µm, BD Falcon REF 352340). After centrifugation at 700g for 10 min, the suspension was decanted and conidia were resuspended at 1×10^5 per ml in RPMI and counted in a hemocytometer. Hyphae were harvested from yeast extract peptone dextrose (YPD) culture media with 0.05% Tween 80. Hyphal fragments were sized by vortexing 15 sec twice with 0.4 mm glassbeads, and the hyphae suspension was filtered by cheese cloth twice. […] To normalize concentrations of hyphal fragments for batch to batch consistency, carbohydrate analysis was performed by a phenol-sulfuric acid method as previously described. The final stock concentration of hyphae was adjusted to 1.0 (OD490) per 100 µl.
(§2) The ATPLite assay kit, consisting of luciferase/luciferin and detergent, was used to quantitate cellular ATP levels as a marker for cell viability (Table 1). For assay development, hyphal fragments or conidia in PBS were plated in a seeding density of 3,750, 7,500 and 15,000 cellular particles/well with a final volume of 5 µl/well using the Multidrop-Combi dispenser in white 1536-well plates. Conidia or hyphae fragments were incubated for 24 h at 37°C in a 5% CO2 humidified atmosphere. ATPLite detection reagents were added at 4 µl/well. The assay plates were incubated at room temperature for 15 minutes before reading luminescence intensity on a ViewLux plate reader (Perkin Elmer, Waltham, MA). Conidia suspended in RPMI medium were inoculated at concentrations of 62.5, 125 and 250 conidia/well with a final volume of 5 µl/well in white 1536-well plates. The conidia assay was developed and optimized in the same way as the hyphal assay.
(§3) The LOPAC library (Sigma-Aldrich) has been extensively used for HTS assay validations, [18]. The NIH Chemical Genomics Center Pharmaceutical (NPC) collection was constructed in-house through a combined effort of compound purchasing and custom synthesis and recently expanded to 4096 compounds. […] 2.5 µl/well PBS was dispensed into 1536-well plates using a Multidrop-Combi dispenser. Compound in DMSO solution was transferred in a volume of 23 nl/well using a NX-TR pintool station (WAKO Scientific Solutions, San Diego, CA). This additional PBS step for compound addition was designed to prevent the potential fungal contamination of compound libraries. The hyphal fragments in PBS were then added at 2.5 µl/well for a final seeding density of 15,000 hyphal fragments/well using the Multidrop-Combi dispenser. The final compound concentration was 46 µM in the primary screen. The assay plates were incubated for 24 h at 30°C before the detection of cellular viability with the ATP content assay. Screen of conidia was performed in a similar way except that PBS was replaced with RPMI medium and conidia were plated for a final seeding density of 250 conidia/well.
(§4) The primary screen data and curve fitting were analyzed using software developed internally at the NIH Chemical Genomics Center (NCGC). Total signals for cellular viability (100% cellular viability) were calculated from the wells with DMSO solvent and the complete cell killing (0% cellular viability) was calculated from 46 µM amphotericin B treated wells. […] All values were expressed as the mean +/− SD (n≥3).

SH-SY5Y cells = experiment: SH-SY5Y cytotoxicity counter-screen (ATP content assay); assay type: cell-based, Human; conditions: for SH-SY5Y % Max. Resp.: Table 2, SH-SY5Y, inact. = no significant activity at 46 µM; for SH-SY5Y % M. Res.: Inact. = no significant activity at 46 µM; for cytotoxicity in SH-SY5Y mammalian cells: concentration up to 46 µM
Description: Human neuroblastoma SH-SY5Y cell line (Catalog No. CRL-2266) was purchased from ATCC (Manassas, VA). SH-SY5Y cell line was cultured in 175-cm^2 tissue culture flasks (Costar, Cambridge, MA) with 30 ml of growth medium at 37°C in a 5% CO2 humidified atmosphere. Growth medium was made with Dulbecco's Modified Eagle Medium: Nutrient Mixture F-12 with 10% fetal bovine serum (FBS). Growth medium was replaced every other day and cells were passed at 75% confluence.
as §2
Two small known compound libraries including the LOPAC (1280 compounds) and approved drugs (4096 compounds) were screened in parallel using the above optimized assays for hyphae and conidia in 1536-well plates (Fig. 4). […] A mammalian SH-SY5Y cell line was used in parallel as a counter-screen with the same ATP content assay kit to assess the specificity of these compounds for E. rostratum.

E. rostratum conidia = experiment: conidia growth inhibition ATP content assay (RPMI, 1536-well); assay type: cell-based, Exserohilum rostratum; conditions: for Conidia IC50: Inact. = no significant activity at the highest compound concentration (46 µM)
Description: as §1, §2, §3, §4

[2] = system: E. rostratum hyphal fragments; experiment: colony formation assay of hyphal fragments; assay type: cell-based, Exserohilum rostratum; conditions: 2 times respective IC50, 37°C, 24 h; p<0.01
Description: 10 µl of hyphal suspension (processed as described above) was transferred to 1.7 mL microfuge tubes, each containing 28 nM amphotericin B, 242 nM posaconazole, or 10% DMSO in 1 ml PBS. Tubes containing hyphae and drug were incubated at 37°C in a shaking incubator for 24 h, then 200 µl of the hyphae drug suspension was spread on Yeast Extract Peptone Dextrose (YPD) plates for 24 h at 30°C and the number of colony forming units were scored. The experiments were performed in triplicate.
Mixtures were cultured at 37°C in a shaking incubator for 24 h, then the hyphal suspensions were inoculated on Yeast Extract Peptone Dextrose (YPD) plates that were incubated for 1 day. The number of colonies on each YPD plate was counted.

[3] = Exserohilum rostratum, Table 2, inact. = no significant activity in the primary screen, read-out: Hyphae % Max. Resp.
[4] = Exserohilum rostratum, Table 2, 24 h, inact. = no significant activity in the primary screen, read-out: Hyphae IC50
[5] = Exserohilum rostratum, Table S1, Inact. = no significant activity in the primary screen, read-out: Hyphae % M. Res.
[6] = Table S1, 46 µM Amphotericin B = 100%
[7] = Table S1, Inact. = no significant activity at the highest compound concentration (46 µM)
[8] = Exserohilum rostratum, 24 h, Table 2, 24 h, inact. = no significant activity at the highest compound concentration (46 µM), read-out: Conidia IC50
[9] = Exserohilum rostratum, Table 2, 46 µM Amphotericin B = 100%, inact. = no significant activity at 46 µM, read-out: Conidia % Max. Resp.
[10] = Exserohilum rostratum, Table S1, 46 µM Amphotericin B = 100%, Inact. = no significant activity at 46 µM, read-out: Conidia % M. Res.
[11] = Exserohilum rostratum, Figure 5, read-out: IC50 Hyphae
[12] = Exserohilum rostratum, Figure 5, read-out: IC50 Conidia
[13] = Exserohilum rostratum, Table S1, Inact. = no significant activity in the primary screen, read-out: Hyphae IC50
[14] = Table S1, 46 µM Amphotericin B = 100%, Inact. = no significant activity at 46 µM
[15] = Table S1, Inact. = no significant activity in the primary screen
[16] = Table 2, inact. = no significant activity in the primary screen
[17] = Table 2, 24 h, inact. = no significant activity in the primary screen

SMILES	Emax [1, 3] [%]	IC50 [1, 4] [nM]	SH-SY5Y % Max. Resp. (SH-SY5Y cells; 46 µM Amphotericin B = 100%)	SH-SY5Y % Max. Resp. (SH-SY5Y cells)	SH-SY5Y % M. Res. (SH-SY5Y cells; [6])	SH-SY5Y IC50 (SH-SY5Y cells; [7])	IC50 (E. rostratum conidia; [8]) [nM]	Emax (E. rostratum conidia; [9]) [%]	hyphae-derived colony forming units (CFU) compared to DMSO control [2]	other results
N#C/C(=C1/SC[C@@H](c2ccc(Cl)cc2Cl)S1)n1ccnc1 [Luliconazole]	82	6400	inact.	inact.	Inact.	Inact.	4390	100	significantly reduced	Emax [1, 5]: 82%; Emax (E. rostratum conidia; [10]): 100%
N#C/C(=C1/SCC(c2ccccc2Cl)S1)n1ccnc1 (centres unmarked) [Lanoconazole]	65	203	inact.	inact.	–	–	380	103	significantly reduced	IC50 [1, 11]: 459 nM; cytotoxicity in SH-SY5Y mammalian cells (SH-SY5Y cells): no significant cytotoxicity; IC50 (E. rostratum conidia; [12]): 818 nM
CCC(C)n1ncn(-c2ccc(N3CCN(c4ccc(OCC5COC(Cn6cncn6)(c6ccc(Cl)cc6Cl)O5)cc4)CC3)cc2)c1=O (centres unmarked) [Itraconazole]	80	2190	inact.	inact.	–	–	1240	100	significantly reduced	IC50 [1, 11]: 1970 nM; cytotoxicity in SH-SY5Y mammalian cells (SH-SY5Y cells): no significant cytotoxicity; IC50 (E. rostratum conidia; [12]): 1270 nM
COCc1c(C(C)C)nc(C(C)C)c(/C=C/[C@@H](O)C[C@@H](O)CC(=O)O)c1-c1ccc(F)cc1 [Cerivastatin sodium]	79	1610	inact.	inact.	–	–	472	101	–	–
CN(C/C=C/C#CC(C)(C)C)Cc1cccc2ccccc12 [Terbinafine]	–	–	–	–	Inact.	Inact.	–	–	–	Emax [1, 5]: 64%; IC50 [1, 13]: 34000 nM; Conidia % M. Res. (E. rostratum conidia; [14]): Inact.; Conidia IC50 (E. rostratum conidia; Table S1): Inact.
Oc1c(Br)cc(Br)c2cccnc12 [Broxyquinoline]	96	4510	100%	58.9%	–	–	1600	98	–	–
N[C@@H](COP(=O)(O)O)C(=O)O [Dexfosfoserine]	–	–	–	–	Inact.	Inact.	–	–	–	Hyphae % M. Res. [1, 15]: Inact.; Hyphae IC50 [1, 15]: Inact.; Conidia % M. Res. (E. rostratum conidia; [14]): Inact.; Conidia IC50 (E. rostratum conidia; Table S1): Inact.
C=CC[C@@H]1/C=C(\C)C[C@H](C)C[C@H](OC)[C@H]2O[C@@](O)(C(=O)C(=O)N3CCCC[C@H]3C(=O)O[C@H](/C(C)=C/[C@@H]3CC[C@@H](O)[C@H](OC)C3)[C@H](C)[C@@H](O)CC1=O)[C@H](C)C[C@@H]2OC [Tacrolimus]	83	32	inact.	inact.	–	–	24	101	significantly reduced	IC50 [1, 11]: 31 nM; cytotoxicity in SH-SY5Y mammalian cells (SH-SY5Y cells): no significant cytotoxicity; IC50 (E. rostratum conidia; [12]): 36 nM
CN(C)C(=S)SC(=S)N(C)C [Tetramethylthiuram monosulfide]	–	–	–	–	Inact.	–	–	–	–	Emax [1, 5]: 59%; IC50 [1, 13]: 67900 nM; SH-SY5Y IC50 (SH-SY5Y cells): Inact.; IC50 (E. rostratum conidia; Exserohilum rostratum, read-out: Conidia IC50): 3400 nM; Emax (E. rostratum conidia; [10]): 23%
O=C1[O][Pt]2([NH][C@@H]3CCCC[C@H]3[NH]2)[O]C1=O [Oxaliplatin]	–	–	inact.	inact.	–	–	–	–	–	Hyphae % Max. Resp. [1, 16]: 76%; IC50 ([1]; Table 2, 24 h, inact. = no significant activity in the primary screen, read-out: Hyphae IC50): 935 nM; Conidia % Max. Resp. (E. rostratum conidia; Table 2, 46 µM Amphotericin B = 100%, inact. = no significant activity at 46 µM): 95%; IC50 (E. rostratum conidia; read-out: Conidia IC50): 4950 nM
COC1=CC(=O)C[C@@H](C)[C@]12Oc1c(Cl)c(OC)cc(OC)c1C2=O [Griseofulvin]	–	–	–	–	Inact.	Inact.	–	–	–	Hyphae % M. Res. [1, 15]: Inact.; Hyphae IC50 [1, 15]: Inact.; Conidia % M. Res. (E. rostratum conidia; [14]): Inact.; Conidia IC50 (E. rostratum conidia; Table S1): Inact.
Oc1c(I)cc(Cl)c2cccnc12 [Clioquinol]	–	–	60%	37.2%	–	–	975	103	–	Hyphae % Max. Resp. [1, 16]: inact.; Hyphae IC50 [1, 17]: inact.
Oc1c(I)cc(I)c2cccnc12 [Iodoquinol]	–	–	58%	26.3%	–	–	2750	99	–	Hyphae % Max. Resp. [1, 16]: inact.; Hyphae IC50 [1, 17]: inact.
